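1) Cells in 96-well plates. 2) Compound, 48 h, 5 concentrations. 3) Linear interpolation between surrounding doses. 4) Unreached endpoint = highest concentration. GI50: concentration for 50% inhibition of growth.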 Active and inactive are the calls of the source. Rule as the data show it: active = GI50 up to about 1.1 µM and inactive = higher.
What was measured:
Assay in all cases: growth of human tumour cells (NCI), 48 h
[1] = tested on: SK-MEL-2
[2] = tested on: NCI-H522
[3] = tested on: A498
[4] = tested on: NCI/ADR-RES
[5] = tested on: CAKI-1
[6] = tested on: T47D
[7] = tested on: Hs-578T
[8] = tested on: Malme-3M
[9] = tested on: PC-3
[10] = tested on: SW-620
[11] = tested on: SF-268
[12] = tested on: MCF7
[13] = tested on: U-251
[14] = tested on: OVCAR-5
[15] = tested on: DU-145
[16] = tested on: K562
[17] = tested on: COLO 205
[18] = tested on: LOX IMVI
[19] = tested on: 786-0

Measured: GI50

Cc1cc2c(O)c(c1)CN(CC(=O)O)Cc1cc(C)cc(c1O)CN(CC(=O)O)Cc1cc(C)cc(c1O)CN(CC(=O)O)C2
inactive: [1] > 100 µM | [2] > 100 µM | [3] > 100 µM | [4] > 100 µM | [5] > 100 µM | [6] > 100 µM | [7] > 100 µM | [8] > 100 µM | [9] > 100 µM | [10] > 100 µM | [11] > 100 µM | [12] > 100 µM | [13] > 100 µM | [14] > 100 µM | [15] > 100 µM | [16] > 100 µM | [17] > 100 µM | [18] > 100 µM | [19] > 100 µM

CCN(CC)c1ccc(/C=C(\C#N)c2nc(N)nc(N3N=C(C)CC3(C)C)n2)cc1
inactive: [1] 15.6 µM | [2] 16.9 µM | [3] 16.2 µM | [4] 15.8 µM | [5] 15.1 µM | [6] 17.2 µM | [7] 2.4 µM | [8] 18.2 µM | [9] 37.2 µM | [10] 55.6 µM | [11] 15 µM | [12] 32 µM | [13] 13.3 µM | [14] 26.7 µM | [15] 9.64 µM | [16] > 38.1 µM | [17] 29.6 µM | [18] 14 µM | [19] 13.4 µM

NNc1nncn1N
inactive: [1] > 100 µM | [2] > 93.1 µM | [3] > 100 µM | [4] > 90.6 µM | [5] > 100 µM | [6] 63 µM | [7] > 100 µM | [8] > 55 µM | [9] > 100 µM | [10] > 57.1 µM | [11] > 100 µM | [12] > 100 µM | [13] > 100 µM | [14] > 100 µM | [15] > 55.2 µM | [16] > 76 µM | [17] > 100 µM | [18] > 90.4 µM | [19] > 80 µM

[N-]=[N+]=NCC(=O)c1cnc(O)nc1O
inactive: [1] > 100 µM | [2] > 100 µM | [3] > 100 µM | [4] > 100 µM | [5] > 100 µM | [6] > 100 µM | [7] > 100 µM | [8] > 100 µM | [9] > 100 µM | [10] > 100 µM | [11] > 100 µM | [12] > 100 µM | [13] > 100 µM | [14] > 100 µM | [15] > 100 µM | [16] > 100 µM | [17] > 100 µM | [18] > 100 µM | [19] > 100 µM

O=C(N/N=C1/C(=O)c2c3ccccc3cc3cccc1c23)c1ccccc1
inactive: [1] 33.2 µM | [2] 32.7 µM | [3] 22.1 µM | [4] 40 µM | [5] 26.4 µM | [6] 3.69 µM | [7] 40.6 µM | [8] 33.5 µM | [9] 26.7 µM | [10] > 100 µM | [11] 30 µM | [12] 30.4 µM | [13] 31.6 µM | [14] 34.3 µM | [15] 4.49 µM | [16] > 59.6 µM | [17] > 65.6 µM | [18] 37.9 µM | [19] 19.1 µM

Source: ChEMBL document CHEMBL1201862, “PubChem BioAssay data set” (2004)
